Values of other authors in paper PMC4422128, “Discovery of sea urchin NGFFFamide receptor unites a bilaterian neuropeptide family” (Open Biology, 2015).
“Also recorded” adds a separate entry of the source. Positions of bridges follow the written chain, without caps; N, C: chain ends. No end group written: not given here.

Assays:
[1] = tested on: NPSR-type protein in Drosophila
Source text: Furthermore, the ligand that activ ...

[2] = tested on: crab hearts; parameters: method as in PMID 16593803
[3] = tested on: arthropods; conditions: insects (b4)
Source text: Furthermore, the ligand that activ ... || Our discovery that the NPS/CCAP-type receptor in the sea urchin S. purpuratus is activated by the NG peptide NGFFFamide provides a basis for investigation of the physiological roles of NG peptides in deuterostomian invertebrates. This will provide new insights into the evolution of the physiological and behavioural functions of NPS/NG peptide/CCAP-type neuropeptides in the animal kingdom. Based upon what is currently known, a common theme seems to be a role in control of behaviours that are associated with a heightened state of arousal. Thus, NPS causes anxiolysis and arousal in mammals, ...

[4] = tested on: VRR1/GPR154 (NPSR); parameters: method as in PMID 15312648; conditions: purified from brain extracts
[5] = tested on: rodents; conditions: rodents (b3); mammals
Source text: This will provide new insights into the evolution of the physiological and behavioural functions of NPS/NG peptide/CCAP-type neuropeptides in the animal kingdom. Based upon what is currently known, a common theme seems to be a role in control of behaviours that are associated with a heightened state of arousal. Thus, NPS causes anxiolysis and arousal in mammals, ...

Substance | activation of NPSR-type protein in Drosophila [1] | effect on crab hearts [2] | control/activation of ecdysis [3] | ligand activity at VRR1/GPR154, NPS [4] | physiological action of NPS: anxiety [5] | physiological action of NPS: arousal [5]
PFCNAFTGC-NH2 (disulfide 3-9 (inferred)) [CCAP, crustacean cardioactive peptide] | activates the NPSR-type protein in Drosophila | excitatory effect on crab hearts | activates the ecdysis motor programme; also recorded: controls ecdysis behaviour in insects |  |  | 
SFRNGVGTGMKKTSFQRAKS [NPS, neuropeptide-S] |  |  |  | endogenous ligand | anxiolytic-like action; also recorded: anxiolysis | causing arousal
